Activity calls are given as the source filed them. The rule behind the calls is not given here.
Legend:
[1] = target: Serine/threonine-protein kinase TAO2 (Homo sapiens) (UniProt Q9UL54); experiment: TAO kinase 2 Millipore kinase panel; conditions: Compound concentration 10.0 uM
[2] = target: Rod cGMP-specific 3',5'-cyclic phosphodiesterase subunit alpha (Homo sapiens, UniProt P16499); experiment: hPDE6AB PDE scan
[3] = target: Acetylcholinesterase (Homo sapiens) (UniProt P22303); experiment: hACHE Cerep panel; conditions: Compound concentration 10.0 uM
Sequence of Acetylcholinesterase (Homo sapiens) (P22303 whole entry): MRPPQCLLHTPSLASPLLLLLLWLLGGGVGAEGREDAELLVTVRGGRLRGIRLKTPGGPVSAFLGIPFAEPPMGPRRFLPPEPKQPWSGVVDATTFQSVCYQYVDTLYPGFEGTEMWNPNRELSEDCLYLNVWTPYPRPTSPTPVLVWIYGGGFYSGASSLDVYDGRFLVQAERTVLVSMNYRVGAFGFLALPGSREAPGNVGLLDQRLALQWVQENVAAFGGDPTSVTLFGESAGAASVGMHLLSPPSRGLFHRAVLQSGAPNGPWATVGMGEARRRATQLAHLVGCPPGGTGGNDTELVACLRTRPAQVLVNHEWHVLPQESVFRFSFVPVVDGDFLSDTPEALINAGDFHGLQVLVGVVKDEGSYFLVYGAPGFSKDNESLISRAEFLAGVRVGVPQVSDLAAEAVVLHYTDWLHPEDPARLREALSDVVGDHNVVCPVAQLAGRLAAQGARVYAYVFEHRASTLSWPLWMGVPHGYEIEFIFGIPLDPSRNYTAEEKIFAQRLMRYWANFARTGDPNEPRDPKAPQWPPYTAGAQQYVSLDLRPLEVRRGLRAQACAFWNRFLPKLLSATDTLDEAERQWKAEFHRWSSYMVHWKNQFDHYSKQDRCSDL

[4] = target: BDNF/NT-3 growth factors receptor (Homo sapiens) (UniProt Q16620); experiment: neurotrophic tyrosine kinase, receptor, type 2 Millipore kinase panel; conditions: Compound concentration 10.0 uM
Sequence of BDNF/NT-3 growth factors receptor (Homo sapiens) (Q16620 32-822 limits assumed): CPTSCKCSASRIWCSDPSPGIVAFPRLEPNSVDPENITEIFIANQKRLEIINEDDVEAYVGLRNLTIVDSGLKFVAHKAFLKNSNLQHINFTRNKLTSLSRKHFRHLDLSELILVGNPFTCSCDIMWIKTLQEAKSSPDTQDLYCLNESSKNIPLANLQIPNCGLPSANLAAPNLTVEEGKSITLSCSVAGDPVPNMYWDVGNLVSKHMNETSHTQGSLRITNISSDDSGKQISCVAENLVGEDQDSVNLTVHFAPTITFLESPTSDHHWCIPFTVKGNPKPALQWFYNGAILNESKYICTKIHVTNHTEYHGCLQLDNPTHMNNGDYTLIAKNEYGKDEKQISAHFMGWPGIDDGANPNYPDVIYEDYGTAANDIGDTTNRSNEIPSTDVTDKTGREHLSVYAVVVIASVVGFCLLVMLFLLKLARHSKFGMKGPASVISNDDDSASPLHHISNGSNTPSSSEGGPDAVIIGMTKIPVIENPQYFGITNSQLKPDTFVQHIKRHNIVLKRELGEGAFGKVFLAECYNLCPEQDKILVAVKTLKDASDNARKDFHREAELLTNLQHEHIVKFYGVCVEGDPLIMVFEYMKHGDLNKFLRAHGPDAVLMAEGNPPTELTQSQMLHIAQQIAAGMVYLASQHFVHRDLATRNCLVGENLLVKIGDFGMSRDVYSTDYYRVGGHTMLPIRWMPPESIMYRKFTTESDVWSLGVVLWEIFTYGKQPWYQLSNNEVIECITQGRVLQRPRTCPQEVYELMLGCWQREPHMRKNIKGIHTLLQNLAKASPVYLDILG

Rattus norvegicus [5] = species on record: Rattus norvegicus; experiment: rSKCa channel Cerep panel; conditions: Compound concentration 10.0 uM
[6] = target: Serine/threonine-protein kinase PAK 5 (Homo sapiens) (UniProt Q9P286); experiment: p21 protein -activated kinase 5 Millipore kinase panel; conditions: Compound concentration 10.0 uM
Sequence of Serine/threonine-protein kinase PAK 5 (Homo sapiens) (Q9P286 whole entry, looked up): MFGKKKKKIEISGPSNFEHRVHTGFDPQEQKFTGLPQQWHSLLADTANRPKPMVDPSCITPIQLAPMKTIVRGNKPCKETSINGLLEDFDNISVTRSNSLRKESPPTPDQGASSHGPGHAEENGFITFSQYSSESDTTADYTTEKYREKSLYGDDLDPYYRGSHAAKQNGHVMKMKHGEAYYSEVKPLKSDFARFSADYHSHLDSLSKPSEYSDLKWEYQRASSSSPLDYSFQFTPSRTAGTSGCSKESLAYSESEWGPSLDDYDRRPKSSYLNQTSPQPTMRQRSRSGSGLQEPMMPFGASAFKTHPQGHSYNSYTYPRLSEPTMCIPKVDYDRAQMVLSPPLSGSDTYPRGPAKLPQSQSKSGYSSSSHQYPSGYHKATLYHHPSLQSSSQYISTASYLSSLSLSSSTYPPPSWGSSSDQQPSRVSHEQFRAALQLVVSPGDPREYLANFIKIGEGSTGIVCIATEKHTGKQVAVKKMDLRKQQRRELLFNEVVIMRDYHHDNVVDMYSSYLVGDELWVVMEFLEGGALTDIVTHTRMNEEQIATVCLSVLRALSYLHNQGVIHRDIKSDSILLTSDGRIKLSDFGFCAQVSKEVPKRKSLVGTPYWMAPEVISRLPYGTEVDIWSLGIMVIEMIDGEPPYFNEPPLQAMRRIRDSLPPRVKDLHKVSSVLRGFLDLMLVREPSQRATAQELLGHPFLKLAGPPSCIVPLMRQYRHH

[7] = target: Protein kinase C iota type (Homo sapiens) (UniProt P41743); experiment: protein kinase C, iota Millipore kinase panel; conditions: Compound concentration 10.0 uM
[8] = target: Tyrosine-protein kinase Fgr (Homo sapiens) (UniProt P09769); experiment: Gardner-Rasheed feline sarcoma viral (v-fgr) oncogene homolog Millipore kinase panel; conditions: Compound concentration 10.0 uM
[9] = target: MAP kinase-activated protein kinase 2 (Homo sapiens) (UniProt P49137); experiment: mitogen-activated protein kinase-activated protein kinase 2 Millipore kinase panel; conditions: Compound concentration 10.0 uM
[10] = target: Dual specificity mitogen-activated protein kinase kinase 1 (Homo sapiens) (UniProt Q02750); experiment: mitogen-activated protein kinase kinase 1 Millipore kinase panel; conditions: Compound concentration 10.0 uM
[11] = target: T1, 5-hydroxytryptamine receptor 2C (Homo sapiens) (UniProt P28335); experiment: h5HT2C Cerep panel; conditions: Compound concentration 10.0 uM
T1 sequence (whole entry): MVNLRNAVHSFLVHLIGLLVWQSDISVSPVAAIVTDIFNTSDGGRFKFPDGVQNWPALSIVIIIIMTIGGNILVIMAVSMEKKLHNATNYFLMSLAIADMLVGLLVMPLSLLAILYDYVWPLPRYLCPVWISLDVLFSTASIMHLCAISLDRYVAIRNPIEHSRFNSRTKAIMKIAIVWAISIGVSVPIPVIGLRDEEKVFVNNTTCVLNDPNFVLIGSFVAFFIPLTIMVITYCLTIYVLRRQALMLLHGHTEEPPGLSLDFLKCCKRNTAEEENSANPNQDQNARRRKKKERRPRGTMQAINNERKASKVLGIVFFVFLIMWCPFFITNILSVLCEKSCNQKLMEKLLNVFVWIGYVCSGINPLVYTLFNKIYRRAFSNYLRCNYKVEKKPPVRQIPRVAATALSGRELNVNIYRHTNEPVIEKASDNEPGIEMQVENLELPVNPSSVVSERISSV

[12] = target: High affinity nerve growth factor receptor (Homo sapiens) (UniProt P04629); experiment: neurotrophic tyrosine kinase, receptor, type 1 Millipore kinase panel; conditions: Compound concentration 10.0 uM
[13] = target: Galanin receptor type 2 (Homo sapiens) (UniProt O43603); experiment: hGAL2 Cerep panel; conditions: Compound concentration 10.0 uM
[14] = target: Protein kinase C gamma type (Homo sapiens) (UniProt P05129); experiment: protein kinase C, gamma Millipore kinase panel; conditions: Compound concentration 10.0 uM
Rattus norvegicus [15] = species on record: Rattus norvegicus; experiment: rGABA Cerep panel; conditions: Compound concentration 10.0 uM
[16] = target: Adenosine receptor A3 (Homo sapiens) (UniProt P0DMS8); experiment: hA3 Cerep panel; conditions: Compound concentration 10.0 uM
Sequence of Adenosine receptor A3 (Homo sapiens) (P0DMS8 whole entry): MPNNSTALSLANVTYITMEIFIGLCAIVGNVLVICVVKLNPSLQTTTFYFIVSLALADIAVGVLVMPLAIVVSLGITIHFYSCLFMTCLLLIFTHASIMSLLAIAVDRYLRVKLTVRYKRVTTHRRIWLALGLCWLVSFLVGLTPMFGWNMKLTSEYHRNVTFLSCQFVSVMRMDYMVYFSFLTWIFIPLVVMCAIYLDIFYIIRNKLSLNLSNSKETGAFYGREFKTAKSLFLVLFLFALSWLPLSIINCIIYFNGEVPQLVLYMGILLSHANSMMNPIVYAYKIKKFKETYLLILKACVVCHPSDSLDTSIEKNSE

[17] = target: cAMP and cAMP-inhibited cGMP 3',5'-cyclic phosphodiesterase 10A (Homo sapiens, UniProt Q9Y233); experiment: SPA with human PDE10A
[18] = target: B2 bradykinin receptor (Homo sapiens) (UniProt P30411); experiment: hBK2 Cerep panel; conditions: Compound concentration 10.0 uM
[19] = target: T2, 5-hydroxytryptamine receptor 1A (Homo sapiens) (UniProt P08908); experiment: h5HT1A Cerep panel; conditions: Compound concentration 10.0 uM
T2 sequence (whole entry): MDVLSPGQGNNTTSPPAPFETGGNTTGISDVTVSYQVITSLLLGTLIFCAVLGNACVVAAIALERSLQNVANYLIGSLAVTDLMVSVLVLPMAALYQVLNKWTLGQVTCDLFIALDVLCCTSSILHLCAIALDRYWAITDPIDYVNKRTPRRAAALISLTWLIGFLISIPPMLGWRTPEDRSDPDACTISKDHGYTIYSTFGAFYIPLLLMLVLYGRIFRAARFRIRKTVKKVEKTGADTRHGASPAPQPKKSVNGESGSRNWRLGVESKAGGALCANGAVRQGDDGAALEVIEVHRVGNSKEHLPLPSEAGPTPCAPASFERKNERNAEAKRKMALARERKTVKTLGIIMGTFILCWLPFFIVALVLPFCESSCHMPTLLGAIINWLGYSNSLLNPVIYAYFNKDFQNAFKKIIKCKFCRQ

[20] = target: T3, Muscarinic acetylcholine receptor M2 (Homo sapiens) (UniProt P08172); experiment: hM2 Cerep panel; conditions: Compound concentration 10.0 uM
T3 sequence (whole entry): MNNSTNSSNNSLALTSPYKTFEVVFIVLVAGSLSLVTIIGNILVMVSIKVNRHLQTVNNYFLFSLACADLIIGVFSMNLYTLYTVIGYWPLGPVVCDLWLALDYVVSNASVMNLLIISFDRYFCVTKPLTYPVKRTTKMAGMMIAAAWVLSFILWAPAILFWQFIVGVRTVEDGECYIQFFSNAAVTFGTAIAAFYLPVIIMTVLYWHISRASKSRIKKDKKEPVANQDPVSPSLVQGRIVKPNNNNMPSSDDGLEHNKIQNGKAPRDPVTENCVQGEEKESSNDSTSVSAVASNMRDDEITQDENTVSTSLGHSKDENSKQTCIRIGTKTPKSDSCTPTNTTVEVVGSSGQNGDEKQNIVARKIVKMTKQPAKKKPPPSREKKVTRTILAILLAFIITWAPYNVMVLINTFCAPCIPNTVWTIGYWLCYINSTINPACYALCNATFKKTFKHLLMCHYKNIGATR

[21] = target: Protein kinase C alpha type (Homo sapiens) (UniProt P17252); experiment: protein kinase C, alpha Millipore kinase panel; conditions: Compound concentration 10.0 uM
[22] = target: Cyclin-dependent kinase 2/cyclin E (Homo sapiens) (UniProt P24864+P24941+O96020); experiment: cyclin-dependent kinase 2 /clyclinE Millipore kinase panel; format: protein-complex assay; conditions: Compound concentration 10.0 uM
[23] = target: Tyrosine-protein kinase Fes/Fps (Homo sapiens) (UniProt P07332); experiment: feline sarcoma oncogene Millipore kinase panel; conditions: Compound concentration 10.0 uM
[24] = target: Myosin light chain kinase, smooth muscle (Homo sapiens) (UniProt Q15746); experiment: myosin light chain kinase Millipore kinase panel; conditions: Compound concentration 10.0 uM
[25] = target: Protein kinase C zeta type (Homo sapiens) (UniProt Q05513); experiment: protein kinase C, zeta Millipore kinase panel; conditions: Compound concentration 10.0 uM
Sequence of Protein kinase C zeta type (Homo sapiens) (Q05513 whole entry): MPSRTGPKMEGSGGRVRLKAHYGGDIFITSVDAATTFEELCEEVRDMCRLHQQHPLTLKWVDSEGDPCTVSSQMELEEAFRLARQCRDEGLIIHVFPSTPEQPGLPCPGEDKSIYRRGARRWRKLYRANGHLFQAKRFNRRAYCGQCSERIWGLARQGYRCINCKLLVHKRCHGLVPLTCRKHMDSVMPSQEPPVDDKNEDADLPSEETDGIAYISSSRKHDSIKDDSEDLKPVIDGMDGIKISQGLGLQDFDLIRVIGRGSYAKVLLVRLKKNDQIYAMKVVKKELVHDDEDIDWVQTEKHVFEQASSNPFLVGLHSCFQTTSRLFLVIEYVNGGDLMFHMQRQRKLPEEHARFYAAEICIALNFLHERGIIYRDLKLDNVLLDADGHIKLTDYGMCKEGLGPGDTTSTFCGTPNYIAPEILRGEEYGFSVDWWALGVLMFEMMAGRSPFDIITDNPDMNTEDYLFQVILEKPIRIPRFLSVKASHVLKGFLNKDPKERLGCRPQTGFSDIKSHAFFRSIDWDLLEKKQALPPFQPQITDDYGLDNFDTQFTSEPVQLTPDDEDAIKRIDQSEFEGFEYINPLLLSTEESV

[26] = target: CDK3/cyclin E (Homo sapiens) (UniProt P24864+O96020+Q00526); experiment: cyclin-dependent kinase 3 / cyclinE Millipore kinase panel; format: protein-complex assay; conditions: Compound concentration 10.0 uM
Sequence of CDK3/cyclin E (Homo sapiens) (O96020 whole entry, looked up): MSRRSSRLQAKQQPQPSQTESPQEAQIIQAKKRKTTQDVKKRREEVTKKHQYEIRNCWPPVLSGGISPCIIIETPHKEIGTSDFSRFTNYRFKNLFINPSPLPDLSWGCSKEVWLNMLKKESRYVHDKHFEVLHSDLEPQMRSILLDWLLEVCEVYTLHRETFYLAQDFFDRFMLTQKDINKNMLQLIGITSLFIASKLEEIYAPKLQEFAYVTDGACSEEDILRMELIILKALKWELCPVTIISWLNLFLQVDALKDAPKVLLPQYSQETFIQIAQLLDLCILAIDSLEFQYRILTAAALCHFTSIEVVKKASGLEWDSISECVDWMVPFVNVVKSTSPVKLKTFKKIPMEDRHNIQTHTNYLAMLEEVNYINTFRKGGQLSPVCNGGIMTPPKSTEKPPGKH
Sequence of CDK3/cyclin E (Homo sapiens) (P24864 whole entry, looked up): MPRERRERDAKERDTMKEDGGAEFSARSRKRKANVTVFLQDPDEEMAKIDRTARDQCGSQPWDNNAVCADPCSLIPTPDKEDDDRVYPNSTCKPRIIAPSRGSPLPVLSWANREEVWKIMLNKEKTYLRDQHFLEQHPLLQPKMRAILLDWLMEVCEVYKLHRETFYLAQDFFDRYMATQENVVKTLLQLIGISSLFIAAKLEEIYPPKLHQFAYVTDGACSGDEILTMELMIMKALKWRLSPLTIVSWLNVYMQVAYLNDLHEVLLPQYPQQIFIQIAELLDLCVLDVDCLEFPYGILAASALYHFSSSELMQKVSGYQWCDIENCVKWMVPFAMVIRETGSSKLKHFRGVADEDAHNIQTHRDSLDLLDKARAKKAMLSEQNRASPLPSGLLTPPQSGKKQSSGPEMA
Sequence of CDK3/cyclin E (Homo sapiens) (Q00526 whole entry, looked up): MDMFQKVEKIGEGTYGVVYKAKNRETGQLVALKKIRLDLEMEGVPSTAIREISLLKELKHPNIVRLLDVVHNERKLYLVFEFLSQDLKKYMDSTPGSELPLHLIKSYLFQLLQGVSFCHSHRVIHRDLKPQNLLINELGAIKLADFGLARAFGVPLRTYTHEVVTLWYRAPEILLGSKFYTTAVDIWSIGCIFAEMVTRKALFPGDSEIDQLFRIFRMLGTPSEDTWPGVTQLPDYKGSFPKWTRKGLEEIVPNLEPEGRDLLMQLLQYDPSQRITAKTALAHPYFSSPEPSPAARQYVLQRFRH

[27] = target: Ephrin type-A receptor 5 (Homo sapiens) (UniProt P54756); experiment: EPH receptor A5 Millipore kinase panel; conditions: Compound concentration 10.0 uM
[28] = target: Serine/threonine-protein kinase 4 (Homo sapiens) (UniProt Q13043); experiment: serine/threonine kinase 4 Millipore kinase panel; conditions: Compound concentration 10.0 uM
[29] = target: 5-hydroxytryptamine receptor 6 (Homo sapiens) (UniProt P50406); experiment: h5HT6 Cerep panel; conditions: Compound concentration 10.0 uM
[30] = target: Ribosomal protein S6 kinase alpha-4 (Homo sapiens) (UniProt O75676); experiment: ribosomal protein S6 kinase, 90kDa, polypeptide 4 Millipore kinase panel; conditions: Compound concentration 10.0 uM
[31] = target: MAP kinase-activated protein kinase 5 (Homo sapiens) (UniProt Q8IW41); experiment: mitogen-activated protein kinase-activated protein kinase 5 Millipore kinase panel; conditions: Compound concentration 10.0 uM

Compound: COCCc1ccc(-c2c(C)nc3c(N4CCOCC4)ccnn23)cn1 [JNJ-42396302]
- inhibition [1]: 10%
- Ki [2]: 85 µM
- effect [3]: 0.2%
- inhibition [4]: -5%
- effect (Rattus norvegicus [5]): 7.4%
- inhibition [6]: 7%
- inhibition [7]: 3%
- inhibition [8]: 7%
- inhibition [9]: -5%
- inhibition [10]: -1%
- effect [11]: -1.95%
- inhibition [12]: 7%
- effect [13]: 6.7%
- inhibition [14]: -4%
- effect (Rattus norvegicus [15]): 21.1%
- effect [16]: 8.4%
- Ki [17]: 0.013 µM (active)
- effect [18]: 7.1%
- effect [19]: 8.65%
- effect [20]: 11%
- inhibition [21]: 15%
- inhibition [22]: 1%
- inhibition [23]: 13%
- inhibition [24]: 2%
- inhibition [25]: 5%
- inhibition [26]: 7%
- inhibition [27]: -9%
- inhibition [28]: -7%
- effect [29]: 4.9%
- inhibition [30]: 2%
- inhibition [31]: 7%
